Results from patent publication EP4711365A1 (Shanghai Hansoh Biomedical Co., Ltd., priority 2023, dated 2024).

Legend:
[1] = target: T1, human IL-17RA and IL-17A proteins (Homo sapiens, UniProt Q16552); test: Competitive ELISA: blocking of binding between human IL-17RA and IL-17A; conditions: coated IL-17A, IL-17RA 5 nM
T1 sequence (Q16552 24-155): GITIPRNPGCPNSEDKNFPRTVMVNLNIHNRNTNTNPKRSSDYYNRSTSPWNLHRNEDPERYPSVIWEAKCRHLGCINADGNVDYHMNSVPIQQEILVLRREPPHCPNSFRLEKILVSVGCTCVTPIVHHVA
Experimental: Test example 1 Assay for competitive binding effect between compounds of the present invention and human IL-17 receptor for ligand
1. Experimental objective: to quantitatively determine the blocking effect of the compound on the binding between human IL-17RA and IL-17A proteins using competitive ELISA under in vitro conditions. 2. Experimental instruments and reagents: 2.1 Instruments:
2.2 Reagents: 3. Experimental method: IL-17A at 0.0625 µg/mL was coated in a 96-well plate at 4°C overnight at 100 µL per well. The plate was washed with PBST (300 µL/well x 4), and then blocked at 24°C for 2 h by adding 300 µL of ELISA Blocker blocking buffer to each well. The plate was further washed under the same conditions. 80 µL of PBS solution containing 1% BSA and 10 µL of 10× test compound solution were added to each well and mixed uniformly, and then the mixture was incubated at room temperature for 1 hour. After that, 10 µL of IL-17RA solution was added to a final concentration of 5 nM and mixed uniformly, and then the mixture was incubated at 24°C for 1 h. The corresponding concentration and volume of DMSO solution without compounds was added to positive control wells, and 1% BSA solution without IL-17RA was added to negative control wells.
After the plate was washed four times, 100 µL of the anti-Fc tag HRP-conjugated antibody was added, and the mixture was incubated at 37°C for 1 h. After the plate was washed four times, 100 µL of TMB substrate was added to each well, and the mixture was incubated at 37°C in the dark. After colour development was completed, the reaction was terminated by adding 100 µL of stop solution to each well, and the absorbance was measured at wavelengths of 450 nm and 570 nm using a microplate reader.
• 1) Inhibition rate (%): The original data (OD450-OD570) was calculated according to the following formula to obtain the inhibition rate. Inhibition rate% = [(average value of positive control wells - value of sample wells)/(average value of positive control wells - average value of negative control wells)] × 100, where the positive control wells are wells without compounds, and the negative control wells are wells without IL-17RA protein solution. • 2) Curve fitting: Log(inhibitor) vs. response -- Variable slope (four parameters) in GraphPad Prism 8 was used for fitting equation analysis of the compound concentration and the corresponding inhibition rate, and the curve was fitted to obtain the IC50 value of the compound. The fitting calculation equation was Y = Bottom + (Top - Bottom) / (1 + 10^((LogIC50 - X) * HillSlope)).

[2] = Pharmacokinetic assay in Wistar rats, oral; conditions: rat, 30 mg/kg
Experimental: Experimental objective: to study the pharmacokinetic behaviours of the compounds of the present invention in the body (plasma) of Wistar rats as test animals after oral administration at a dose of 30 mg/kg. • 2. Experimental scheme • 2.1 Test drugs: the examples of the present invention, prepared in house. • 2.2 Test animals: Wistar rats (female, 3 rats per group), from Beijing Vital River Laboratory Animal Technology Co., Ltd., with the animal production license no.
Solutol HS15 was melted in a water bath at 50-60°C, and then 50 mL of the melted Solutol HS15 was added to 450 mL of ultrapure water. The mixture was stirred and sonicated to obtain 500 mL of 10% Solutol HS15 solution. The compound was weighed, and according to the total administration volume, 30% PEG solution was first added. The mixture was shaken uniformly and sonicated until a clear solution was obtained. Subsequently, 70% (10% Solutol) in water was added, resulting in a colourless and clear solution with a concentration of 3.0 mg/mL.
2.4 Administration scheme: After overnight fasting, 3 female Wistar rats per group were administered orally (PO) at a dose of 30 mg/kg with an administration volume of 10 mL/kg.
• 1) To 50 uL of plasma sample was added 250 uL of acetonitrile for precipitation, and the mixture was mixed and then centrifuged at 4°C at 4000 rpm for 20 minutes. • 2) The treated supernatant solution was taken and subjected to LC/MS/MS to analyse the concentration of the test compounds. LC/MS/MS analysis instrument: AB Sciex API-4000 Qtrap-Shimadzu Controller-CBM20A.
• Chromatographic column: Waters Xbridge C18 3.5 um 2.1*50 mm • Mobile phase: solution A: 0.1% formic acid in water, and solution B: 0.1% formic acid in acetonitrile • Flow rate: 0.6 mL/min • Elution time: 0-3.5 minutes, with eluents as follows:

[3] = tested on: Groα secretion by HT-29 cells; test: Inhibition of Groα secretion by HT-29 cells stimulated with IL-17A (ELISA); type: cell-based, Human; conditions: Homo sapiens, IL-17A 30 ng/ml, Groα in supernatant
Experimental: Test example 2 Assay for inhibitory effect of compounds of the present invention against Groα secretion by HT-29 cells
Experimental objective: to measure the inhibitory effect of the compounds against Groα secretion by HT-29 cells, thereby evaluating the inhibition of the compounds on IL-17A pathway.
Experimental method: A cell suspension at 50,000 cells/ml was prepared, and 200 µl of the cell suspension was added to each well of a 96-well plate, i.e., 10,000 cells/well. The plate was cultured overnight. In the 96-well V-bottom plate, 5 mM compound solution was serially diluted 3-fold using DMSO, and the compound from each well was diluted 100-fold using a complete culture medium. IL-17A protein (R&D, #BT7955-025/CF) with a stock concentration of 100 µg/ml was diluted 333.33-fold using a complete culture medium. The compound and IL-17A were mixed at a volume ratio of 1:1 and incubated at 37°C for 30 minutes. 50 µl of a mixture of the compound and IL-17A was added to cell wells, and the final concentration of IL-17A protein was 30 ng/ml.
The mixture was incubated in a 37°C, 5% CO2 cell culture incubator for 48 hours. The concentration of Groα in the supernatant was determined by ELISA method using Human Groα Valukin Elisa kit (Biotechne, # VAL139), and the absorbance intensity at 450 nm was measured using a microplate reader (PE, EnVision2105). Data were analysed using GraphPad Prism 8.3.0.
Experimental data processing method: Data were analysed using GraphPad Prism 8.3.0.
Inhibition rate% = [(average value of positive control wells - value of sample wells)/(average value of positive control wells - average value of negative control wells)] × 100%, where the sample wells are wells containing cells plus compounds at different concentration gradients, the positive control wells are wells containing cells plus IL-17A, and the negative control wells are wells containing culture medium plus IL-17A.
Curve fitting: The IC50 value was obtained by curve fitting based on the inhibition rate (%) at each concentration using the log(inhibitor) vs. responseVariable slope (four parameters) in GraphPad Prism 6.0, and the calculation equation was Y = Bottom + (Top-Bottom)/(1+10^((LogIC50-X)*HillSlope)).

Structure (SMILES) | IC50 [1] [nM] | AUC(0-t) ([2]; in vivo) [ng·h/mL] | Cmax ([2]; in vivo) [ng/mL] | Tmax ([2]; in vivo) [h] | half-life ([2]; in vivo) [h] | IC50 ([3]; HT-29, 48 h) [nM] | further results
[2H]C1([2H])NC(=O)N([C@H](COC)c2cnc(NC(=O)[C@@H](NC(=O)OC3CC3)[C@H]3CC[C@H](C)CC3)s2)C([2H])([2H])C1(F)F [Example 559] | 4.3 | – | – | – | – | – | AUC(0-t) ([2]; plasma): 12700 ng·h/mL; Cmax ([2]; plasma): 2190 ng/mL; Tmax ([2]; plasma): 2 h; half-life ([2]; plasma): 2.7 h
C[C@H]1CC[C@H]([C@H](NC(=O)C2(F)CC2)C(=O)Nc2ncc([C@@H](CN3CCOC4(CC4)C3)N3CC(F)(F)CNC3=O)s2)CC1 [Example 721] | 4 | – | – | – | – | – | –
CC1(C)COCCN1C[C@H](c1cnc(NC(=O)[C@@H](NC(=O)C2(F)CC2)[C@H]2CC[C@H](C)CC2)s1)N1CC(F)(F)CNC1=O [Example 723] | 5 | – | – | – | – | – | IC50 ([3]; 48 hours): 4 nM
CC[C@@H]1CN(C[C@H](c2cnc(NC(=O)[C@@H](NC(=O)C3(F)CC3)[C@H]3CC[C@H](C)CC3)s2)N2CC(F)(F)CNC2=O)CCO1 [Example 704] | 4.9 | – | – | – | – | – | IC50 ([3]; 48 hours): 6.5 nM
COC[C@H](c1cnc(NC(=O)[C@@H](NC(=O)c2nonc2C)[C@H]2CC[C@H](C)CC2)s1)n1cc(Cl)ccc1=O [Example 569] | 5 | – | – | – | – | – | –
[2H]C([2H])([2H])C([2H])([2H])n1nccc1C(=O)N[C@H](C(=O)Nc1ncc([C@@H](CN2C[C@H](C)O[C@@H](C)C2)N2CC(F)(F)CCC2=O)s1)[C@H]1CC[C@H](C)CC1 [Example 854, N-((S)-2-((5-((R)-1-(5,5-difluoro-2-oxopiperidin-1-yl)-2-((2S,6S)-2,6-dimethylmorpholino)ethyl)thiazol-2-yl)amino)-1-((1r,4S)-4-methylcyclohexyl)-2-oxoethyl)-1-(ethyl-d5)-1H-pyrazole-5-carboxamide] | – | – | – | – | – | – | IC50 ([3]; 48 hours): 9 nM; AUC(0-t) ([2]; plasma): 14900 ng·h/mL; Cmax ([2]; plasma): 2170 ng/mL; Tmax ([2]; plasma): 1 h; half-life ([2]; plasma): 3 h
C[C@H]1CN(C[C@H](c2cnc(NC(=O)[C@@H](NC(=O)C3(F)CC3)[C@H]3CC[C@H](C)CC3)s2)N2CC(F)(F)CNC2=O)C[C@H](C)O1 [Example 730] | 6.7 | – | – | – | – | – | –
[2H]C([2H])([2H])C([2H])([2H])n1nccc1C(=O)N[C@H](C(=O)Nc1ncc([C@@H](CN2CCO[C@@H](C)C2)N2CC(F)(F)CCC2=O)s1)[C@H]1CC[C@H](C)CC1 [Example 628] | – | 20900 | 2270 | 4 | 3.3 | – | IC50 ([3]; 48 hours): 6.7 nM
[2H]C([2H])([2H])C([2H])([2H])n1nccc1C(=O)N[C@H](C(=O)Nc1ncc([C@@H](CN2CCC(C(F)F)CC2)N2CC(F)(F)CCC2=O)s1)[C@H]1CC[C@H](C)CC1 [Example 938] | – | 12500 | 1240 | 4 | 6 | 4.4 | –
[2H]C([2H])([2H])C([2H])([2H])n1nccc1C(=O)N[C@H](C(=O)Nc1ncc([C@@H](CN2CCC(C(F)(F)F)CC2)N2CC(F)(F)CCC2=O)s1)[C@H]1CC[C@H](C)CC1 [Example 948] | – | 18800 | 1710 | 4 | 9.3 | 6.5 | –
CCn1nccc1C(=O)N[C@H](C(=O)Nc1ncc([C@@H](CN2CCC(OC)CC2)N2CC(F)(F)CCC2=O)s1)[C@H]1CC[C@H](C)CC1 [Example 646] | – | 19800 | 3830 | 2 | 2.4 | 8 | –
COC[C@H](c1cnc(NC(=O)[C@@H](NC(=O)C2(F)CC2)[C@H]2CC[C@H](C)CC2)s1)N1CC(F)(F)CNC1=O [Example 592] | 6.4 | – | – | – | – | – | –
[2H]C([2H])([2H])C([2H])([2H])n1nccc1C(=O)NC(C(=O)Nc1ncc(C(COC)n2cc(Cl)ccc2=O)s1)C1CCC(C)CC1 (stereo not shown) [Example 586] | – | 15300 | 1750 | 2 | 4.3 | 8.1 | –
[2H]C([2H])([2H])C([2H])([2H])n1nccc1C(=O)NC(C(=O)Nc1ncc(C(CN2CC(C)OCC2C)N2CC(F)(F)CCC2=O)s1)C1CCC(C)CC1 [Example 864, N-((S)-2-((5-((R)-1-(5,5-difluoro-2-oxopiperidin-1-yl)-2-((2R,5S)-2,5-dimethylmorpholino)ethyl)thiazol-2-yl)amino)-1-((1r,4S)-4-methylcyclohexyl)-2-oxoethyl)-1-(ethyl-d5)-1H-pyrazole-5-carboxamide] | – | 15700 | 1600 | 4 | 3.7 | 3 | –
[2H]C1([2H])NC(=O)N([C@H](COC)c2cnc(NC(=O)[C@@H](NC(=O)C3(F)CC3)[C@H]3CC[C@H](C)CC3)s2)C([2H])([2H])C1(F)F [Example 688, N-((S)-2-((5-((R)-1-(5,5-difluoro-2-carbonyltetrahydropyrimidin-1(2H)-yl-4,4,6,6-d4)-2-methoxyethyl)thiazol-2-yl)amino)-1-((1r,4S)-4-methylcyclohexyl)-2-carbonylethyl)-1-fluorocyclopropane-1-carboxamide] | 5.1 | – | – | – | – | – | –
[2H]C([2H])([2H])OC1CCN(CC(c2cnc(NC(=O)C(NC(=O)c3ccnn3C([2H])([2H])C([2H])([2H])[2H])C3CCC(C)CC3)s2)N2CC(F)(F)CCC2=O)CC1F (stereo not shown) [Example 992] | – | 24600 | 4930 | 2 | 2.9 | 3.5 | –
[2H]C([2H])([2H])C([2H])([2H])n1nccc1C(=O)N[C@H](C(=O)Nc1ncc([C@@H](CN2CCC3(CC2)CC3(F)F)N2CC(F)(F)CCC2=O)s1)[C@H]1CC[C@H](C)CC1 [Example 958] | – | 13200 | 1500 | 4 | 9.4 | 2.3 | –
COCC(c1cnc(NC(=O)C(NC(=O)OC2CC2)C2CCC(C)CC2)s1)N1CC(C(F)(F)F)NC1=O (stereo not shown) [Example 522] | 6.2 | – | – | – | – | – | –
[2H]C([2H])([2H])O[C@@H]1CCN(C[C@H](c2cnc(NC(=O)[C@@H](NC(=O)c3ccnn3C([2H])([2H])C([2H])([2H])[2H])[C@H]3CC[C@H](C)CC3)s2)N2CC(F)(F)CCC2=O)C[C@@H]1F [Example 994] | – | 13100 | 2000 | 4 | 2.4 | 9 | –
[2H]C([2H])([2H])C([2H])([2H])n1nccc1C(=O)N[C@H](C(=O)Nc1ncc([C@@H](CN2C[C@@H](C)O[C@@H](C)C2)N2CC(F)(F)CCC2=O)s1)[C@H]1CC[C@H](C)CC1 [Example 849, N-((S)-2-((5-((R)-1-(5,5-difluoro-2-oxopiperidin-1-yl)-2-((2R,6S)-2,6-dimethylmorpholino)ethyl)thiazol-2-yl)amino)-1-((1r,4S)-4-methylcyclohexyl)-2-oxoethyl)-1-(ethyl-d5)-1H-pyrazole-5-carboxamide] | – | – | – | – | – | – | IC50 ([3]; 48 hours): 4 nM; AUC(0-t) ([2]; plasma): 15500 ng·h/mL; Cmax ([2]; plasma): 2480 ng/mL; Tmax ([2]; plasma): 2 h; half-life ([2]; plasma): 2.8 h
